Data taken from the Kinase Knowledgebase extract (Sharma et al. 2016).

Biological target: MAPK14 (human) (UniProt Q16539)
Test: Inhibition of MAPK14 Kinase Activity

Chain of MAPK14 (human) (Q16539 whole entry, looked up): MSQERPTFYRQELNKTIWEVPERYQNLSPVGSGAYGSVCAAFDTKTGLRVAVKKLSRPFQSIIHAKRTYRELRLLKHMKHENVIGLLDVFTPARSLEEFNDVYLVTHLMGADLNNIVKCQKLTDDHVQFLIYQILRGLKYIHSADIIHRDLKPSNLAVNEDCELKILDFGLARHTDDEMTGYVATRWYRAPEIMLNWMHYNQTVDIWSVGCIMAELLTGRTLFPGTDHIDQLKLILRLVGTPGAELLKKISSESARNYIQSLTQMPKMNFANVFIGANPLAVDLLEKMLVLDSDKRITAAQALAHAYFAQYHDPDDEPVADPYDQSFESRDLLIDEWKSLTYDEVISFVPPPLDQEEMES

| IC50 [nM] | SMILES |
| --- | --- |
| < 2000 | CN(C)[C@H]1CCN(c2sc3c(ccc(=O)n3-c3ccccc3)c2C(=O)c2ccccc2)C1 |
| < 2000 | O=C(c1ccccc1)c1c(NC(=O)C2CCNCC2)sc2c1ccc(=O)n2CC1CC1 |
| < 2000 | CN1CCC[C@H]1C(=O)Nc1sc2c(ccc(=O)n2-c2ccccc2)c1C(=O)c1ccccc1 |
| < 2000 | Cc1cc(C(=O)c2c(NC(=O)NCC(C)(C)O)sc3c2ccc(=O)n3CC2CC2)ccc1F |
| < 2000 | Nc1sc2c(ccc(=O)n2-c2ccccc2)c1C(=O)c1ccccc1F |
| < 2000 | CC(=O)Nc1sc2c(ccc(=O)n2-c2ccccc2)c1C(=O)c1ccccc1F |
| < 2000 | CC(C)(O)CNC(=O)Nc1sc2c(ccc(=O)n2CC2CC2)c1C(=O)c1ccccc1 |
| < 2000 | Cc1cccc(C(=O)c2c(N)sc3c2ccc(=O)n3-c2ccccc2)c1 |
| < 2000 | CN(C)c1ccc(-n2c(=O)ccc3c(C(=O)c4ccccc4)c(N)sc32)cn1 |
| < 2000 | Cc1cc(C(=O)c2c(NC3CCN(C)CC3)sc3c2ccc(=O)n3-c2c(F)cccc2F)ccc1F |
| < 2000 | CN1CCN(C(=O)Nc2sc3c(ccc(=O)n3-c3ccccc3)c2C(=O)c2ccccc2)CC1 |
| < 2000 | Nc1sc2c(ccc(=O)n2CC2CC2)c1C(=O)c1ccccc1 |
| < 2000 | O=C(c1ccccc1)c1c(NC2CNC2)sc2c1ccc(=O)n2CC1CC1 |
| < 2000 | O=C(c1ccccc1)c1c(NC(=O)C2CCNCC2)sc2c1ccc(=O)n2-c1ccccc1 |
| < 2000 | Nc1sc2c(ccc(=O)n2-c2ccccc2)c1C(=O)c1cccc(C(F)(F)F)c1 |
| < 2000 | Cc1ccc(C(=O)c2c(N)sc3c2ccc(=O)n3-c2ccccc2)cc1C |
| < 2000 | O=C(c1cccc(Cl)c1)c1c(NC(=O)C2CCNCC2)sc2c1ccc(=O)n2-c1ccccc1 |
| < 2000 | Cc1cc(C(=O)c2c(NC(=O)N[C@@H]3CCN(C)C3)sc3c2ccc(=O)n3-c2ccccc2)ccc1F |
| < 2000 | Cc1cccc(C(=O)c2c(N[C@H]3CCNC3)sc3c2ccc(=O)n3-c2ccccc2)c1 |
| < 2000 | CN1CCC(C(=O)Nc2sc3c(ccc(=O)n3-c3ccccc3)c2C(=O)c2ccccc2)CC1 |
| < 2000 | O=C(c1ccccc1)c1c(N[C@H]2CCCNC2)sc2c1ccc(=O)n2-c1ccccc1 |
| < 2000 | Cc1cccc(C(=O)c2c(NC(=O)NNS(C)(=O)=O)sc3c2ccc(=O)n3-c2ccccc2)c1 |
| < 2000 | Cc1cc(C(=O)c2c(NC(=O)C3CCN(C)CC3)sc3c2ccc(=O)n3-c2ccccc2)ccc1F |
| < 2000 | Cc1cc(C(=O)c2c(NC(=O)N3CCN(C)CC3)sc3c2ccc(=O)n3-c2ccccc2)ccc1F |

| IC50 [nM] | SMILES |
| --- | --- |
| < 2000 | CNC(=O)CNc1sc2c(ccc(=O)n2-c2ccccc2)c1C(=O)c1ccccc1 |
| < 2000 | Cc1cccc(C(=O)c2c(NC(N)=O)sc3c2ccc(=O)n3-c2ccccc2)c1 |
| < 2000 | Nc1sc2c(ccc(=O)n2-c2ccccc2)c1C(=O)c1cccc(Br)c1 |
| < 2000 | CN1CC[C@@H](NC(=O)Nc2sc3c(ccc(=O)n3-c3ccccc3)c2C(=O)c2ccccc2)C1 |
| < 2000 | CN(C)C(=O)CNc1sc2c(ccc(=O)n2-c2ccccc2)c1C(=O)c1ccccc1 |
| < 2000 | CC(=O)Nc1sc2c(ccc(=O)n2-c2ccccc2)c1C(=O)c1cccc(OC(F)(F)F)c1 |
| < 2000 | Cc1cccc(C(=O)c2c(C(N)=O)sc3c2ccc(=O)n3-c2ccccc2)c1 |
| < 2000 | Cc1cc(C(=O)c2c(N)sc3c2ccc(=O)n3-c2ccccc2Cl)ccc1F |
| < 2000 | COc1ccccc1C(=O)c1c(NC(C)=O)sc2c1ccc(=O)n2-c1ccccc1 |
| < 2000 | CC(=O)Nc1sc2c(ccc(=O)n2-c2ccccc2)c1C(=O)c1cccc(F)c1 |
| < 2000 | NC(=O)c1sc2c(ccc(=O)n2-c2ccccc2)c1C(=O)c1cccc(Cl)c1 |
| < 2000 | Cc1cccc(C(=O)c2c(NC(=O)OC(C)(C)C)sc3c2ccc(=O)n3-c2ccccc2)c1 |
| < 2000 | Cc1cc(C(=O)c2c(NC3CCN(C(C)C)CC3)sc3c2ccc(=O)n3-c2ccccc2)ccc1F |
| < 2000 | Cc1ccc(-n2c(=O)ccc3c(C(=O)c4ccccc4)c(N)sc32)cc1 |
| < 2000 | O=C(c1ccccc1)c1c(N[C@H]2CCNC2)sc2c1ccc(=O)n2-c1ccccc1 |
| < 2000 | O=C(c1ccccc1)c1c(N[C@@H]2CCCNC2)sc2c1ccc(=O)n2-c1ccccc1 |
| < 2000 | Nc1sc2c(ccc(=O)n2-c2ccc(F)cc2)c1C(=O)c1ccccc1 |
| < 2000 | Nc1sc2c(ccc(=O)n2-c2ccccc2Cl)c1C(=O)c1ccccc1 |
| < 2000 | Cc1cc(C(=O)c2c(NC3CNC3)sc3c2ccc(=O)n3-c2ccccc2)ccc1F |
| < 2000 | CC(=O)Nc1sc2c(ccc(=O)n2-c2ccccc2Cl)c1C(=O)c1ccc(F)c(C)c1 |
| < 2000 | N[C@@H]1CCN(C(=O)Nc2sc3c(ccc(=O)n3-c3ccccc3)c2C(=O)c2ccccc2)C1 |
| < 2000 | Nc1sc2c(ccc(=O)n2-c2ccccc2)c1C(=O)c1cccc(F)c1 |
| < 2000 | CN(C)C(=O)Nc1sc2c(ccc(=O)n2-c2ccccc2)c1C(=O)c1ccccc1 |
| < 2000 | CN1CC(Nc2sc3c(ccc(=O)n3-c3ccccc3)c2C(=O)c2ccccc2)C1 |

| IC50 [nM] | SMILES |
| --- | --- |
| < 2000 | Cc1cccc(C(=O)c2c(N3CCCCC3)sc3c2ccc(=O)n3-c2ccccc2)c1 |
| < 2000 | CCOC(=O)c1sc2c(ccc(=O)n2-c2ccccc2)c1C(=O)c1cccc(C)c1 |
| < 2000 | NC(=O)c1sc2c(ccc(=O)n2-c2ccccc2)c1C(=O)c1ccc(F)c(Cl)c1 |
| < 2000 | CCN1CC[C@@H](NC(=O)Nc2sc3c(ccc(=O)n3-c3ccccc3)c2C(=O)c2ccc(F)c(C)c2)C1 |
| < 2000 | CC(C)(O)CNC(=O)Nc1sc2c(ccc(=O)n2-c2ccccc2)c1C(=O)c1ccccc1 |
| < 2000 | CS(=O)(=O)Nc1sc2c(ccc(=O)n2-c2ccccc2)c1C(=O)c1ccccc1 |
| < 2000 | Cc1cccc(C(=O)c2c(NC(=O)N3CCC3)sc3c2ccc(=O)n3-c2ccccc2)c1 |
| < 2000 | Cc1ccc(-n2c(=O)ccc3c(C(=O)c4ccc(F)c(C)c4)c(N)sc32)cc1 |
| < 2000 | Cc1cccc(C(=O)c2c(N)sc3c2ccc(=O)n3-c2ccccc2)n1 |
| < 2000 | CC(C)N1CC(Nc2sc3c(ccc(=O)n3-c3ccccc3)c2C(=O)c2ccccc2)C1 |
| < 2000 | CCN1CCC(NC(=O)Nc2sc3c(ccc(=O)n3-c3ccccc3)c2C(=O)c2cccc(C)c2)C1 (stereo not given) |
| < 2000 | Cc1cc(C(=O)c2c(NC3CN(C)C3)sc3c2ccc(=O)n3-c2ccccc2)ccc1F |
| < 2000 | CCOC(=O)c1sc2c(ccc(=O)n2-c2ccccc2)c1C(=O)c1ccc(F)c(C)c1 |
| < 2000 | Nc1sc2c(ccc(=O)n2-c2c(F)cccc2F)c1C(=O)c1ccccc1 |
| < 2000 | O=C(c1ccccc1)c1c(NC(=O)C2CCNCC2)sc2c1ccc(=O)n2-c1ccccc1Cl |
| < 2000 | Nc1sc2c(ccc(=O)n2-c2ccccc2)c1C(=O)c1ccccc1C(F)(F)F |
| < 2000 | N#Cc1sc2c(ccc(=O)n2-c2ccccc2Cl)c1C(=O)c1ccccc1 |
| < 2000 | CC(=O)Nc1sc2c(ccc(=O)n2-c2ccccc2)c1C(=O)c1cccc(C)n1 |
| < 2000 | Cc1cc(C(=O)c2c(NC3CN(C(C)C)C3)sc3c2ccc(=O)n3-c2ccccc2)ccc1F |
| < 2000 | CN1CCC[C@H](Nc2sc3c(ccc(=O)n3-c3ccccc3)c2C(=O)c2ccccc2)C1 |
| < 2000 | CC(=O)Nc1sc2c(ccc(=O)n2-c2ccccc2)c1C(=O)c1cccc(OC(F)F)c1 |
| < 2000 | Cc1cc(C(=O)c2c(NC(=O)NCC(C)(C)O)sc3c2ccc(=O)n3-c2ccccc2)ccc1F |
